Experiments:
[1] = biological target: T1, full-length NS3/NS4A-2 (HCV NS3 protease) (Hepatitis C virus genotype 1b, UniProt Q9WMX2); test: NS3 Inhibition Assay (NS3-NS4 protease assay, RETS1 substrate); format: biochemical; details: NS3/NS4A-2 protease
T1 construct: Recombinant E. coli or Baculovirus full-length NS3; host or cells: E. coli or baculovirus (BV) expression
Method: NS3 Complex Formation with NS4A-2.
Recombinant E. coli or Baculovirus full-length NS3 was diluted to 3.33 μM with assay buffer and transferred material to an eppendorf tube and placed in a water bath in a 4° C. refrigerator. The appropriate amount of NS4A-2 diluted to […] in assay buffer was added to equal the volume of NS3 above (conversion factor—3.8 mg/272 μL assay buffer). The material was transferred to an eppendorf tube and placed in water bath in a 4° C. refrigerator.
After equilibration to 4° C., equal volumes of NS3 and NS4A-2 solutions were combined in an eppendorf tube, mix gently with a manual pipettor, and incubate mixture for 15 minutes in the 4° C. water bath. Final concentrations in the mixture are 1.67 μM NS3, 4.15 mM NS4A-2 (2485-fold molar excess NS4A-2).
After 15 minutes at 4° C., the NS3/NS4A-2 eppendorf tube was removed and place it in a room temperature water bath for 10 minutes. NS3/NS4A-2 was aliquoted at appropriate volumes and store at −80° C. (E. coli NS3 run at 2 nM in assay, aliquot at 25 μL. BV NS3 run at 3 nM in assay, aliquot at 30 μL).
Step a. Sample compounds were dissolved to 10 mM in DMSO then diluted to 2.5 mM (1:4) in DMSO. Typically, compounds were added to an assay plate at 2.5 mM concentration, yielding upon dilution a starting concentration of 50 microM in the assay inhibition curve. Compounds were serial diluted in assay buffer to provide test solutions at lower concentrations.
Step b. The E. coli. NS3/NS4A-2 was diluted to 4 nM NS3 (1:417.5 of 1.67 μM stock−18 μL1.67 μM stock+7497 μL assay buffer). The BV NS3/NS4A-2 was diluted to 6 nM NS3 (1:278.3 of 1.67 μM stock−24 μL1.67 μM stock+6655 μL assay buffer).
Step c. Using the manual multichannel pipettor, and being careful not to introduce bubbles into the plate, 50 μL assay buffer were added to wells A01-H01 of a black Costar 96-well polypropylene storage plate.
Step d. Using the manual multichannel pipettor, and being careful not to introduce bubbles into the plate, 50 μL of diluted NS3/NS4A-2 from Step b were added to wells A02-H12 of the plate in Step c.
Step e. Using the manual multichannel pipettor, and being careful not to introduce bubbles into the plate, 25 μL of the wells in drug dilution plate in Step a were transferred to corresponding wells in assay plate in Step d. The tips on the multichannel pipettor were changed for each row of compounds transferred.
Step f Using the manual multichannel pipettor, and being careful not to introduce bubbles into the plate, the contentes of the wells from the assay plate in Step e were mixed by aspirating and dispensing 35 μL of the 75 μL in each well five times. The tips on multichannel pipettor were changed for each row of wells mixed.
Step g. The plate was covered with a polystyrene plate lid, and the plate from Step f containing NS3 protease and sample compounds was pre-incubated 10 minutes at room temperature.
While plate from Step g is pre-incubating, the RETS1 substrate was diluted in a 15 mL polypropylene centrifuge tube. The RETS1 substrate was diluted to 8 μM (1:80.75 of 646 μM stock—65 μL 646 μM stock+5184 μL assay buffer).
After the plate in Step g was done pre-incubating, and using the manual multichannel, 25 μL of substrate were added to all wells on the plate. The contents of the wells of the plate were quickly mixed, as in Step f, mixing 65 μL of the 100 μL in the wells.
The plate was read in kinetic mode on the Molecular Devices SpectraMax Gemini XS plate reader. Reader settings: Read time: 30 minutes, Interval: 36 seconds, Reads: 51, Excitation λ: 335 nm, Emission λ: 495 nm, cutoff: 475 nm, Automix: off, Calibrate: once, PMT: high, Reads/well: 6, Vmax pts: 21 or 28/51 depending on length of linearity of reaction
IC50s are determined using a four parameter curve fit equation, and converted to Ki's using the following Km's: […]
Full-length E. coli NS3−2.03 μM
Full-length BV NS3−1.74 μM
where Ki=IC50/(1+[S]/Km))

[2] = test system: HCV sub-genomic replicon, GS4.3 (HuH-7 hepatoma cells); test: Quantitation by ELISA of NPTII in the HCV sub-genomic replicon, GS4.3; format: cell-based; details: Hepatitis C virus, GS4.3 replicon cells, 72 h incubation
From the text: Quantitation by ELISA of the Selectable Marker Protein, Neomycin Phosphotransferase II (NPTII) in the HCV Sub-Genomic Replicon, GS4.3
The HCV sub-genomic replicon (1377/NS3-3′, accession No. AJ242652), stably maintained in HuH-7 hepatoma cells, was created by Lohmann et al. Science 285: 110-113 (1999). The replicon-containing cell culture, designated GS4.3, was obtained from Dr. Christoph Seeger of the Institute for Cancer Research, Fox Chase Cancer Center, Philadelphia, Pa.
GS4.3 cells were maintained at 37° C., 5% CO2, in DMEM (Gibco 11965-092) supplemented with L-glutamine 200 mM (100×) (Gibco25030-081), non-essential amino acids (NEAA)(Biowhittaker 13-114E), heat-inactivated (HI) Fetal Bovine Serum(FBS)(Hyclone SH3007.03) and 750 μg/mL geneticin (G418)(Gibco 10131-035). Cells were sub-divided 1:3 or 4 every 2-3 days.
24 h prior to the assay, GS4.3 cells were collected, counted, and plated in 96-well plates (Costar 3585) at 7500 cells/well in […] standard maintenance medium (above) and incubated in the conditions above. To initiate the assay, culture medium was removed, cells were washed once with PBS (Gibco 10010-023) and 90 μl Assay Medium (DMEM, L-glutamine, NEAA, 10% HI FBS, no G418) was added. Inhibitors were made as a 10× stock in Assay Medium, (3-fold dilutions from 10 μM to […] final concentration, final DMSO concentration 1%), […] were added to duplicate wells, plates were rocked to mix, and incubated as above for 72 h.
An NPTII Elisa kit was obtained from AGDIA, Inc. (Compound direct ELISA test system for Neomycin Phosphotransferase II, PSP 73000/4800). Manufacturer's instructions were followed, with some modifications. 10×PEB-1 lysis buffer was made up to include 500 μM PMSF (Sigma P7626, 50 mM stock in isopropanol). After 72 h incubation, cells were washed once with PBS and […] PEB-1 with PMSF was added per well. Plates were agitated vigorously for 15 minutes, room temperature, then frozen at −70° C. Plates were thawed, lysates were mixed thoroughly, and 100 μl were applied to an NPTII Elisa plate. A standard curve was made. Lysate from DMSO-treated control cells was pooled, serially diluted with PEB-1 with PMSF, and applied to duplicate wells of the ELISA plate, in a range of initial lysate amount of 150 μL-2.5 μL. In addition, 100 μL buffer alone was applied in duplicate as a blank. Plates were sealed and gently agitated at room temperature for 2 h. Following capture incubation, the plates were washed 5×300 μL with PBS-T (0.5% Tween-20, PBS-T was supplied in the ELISA kit). For detection, a 1× dilution of enzyme conjugate diluent MRS-2 (5×) was made in PBS-T, into which 1:100 dilutions of enzyme conjugates A and B were added, as per instructions. Plates were resealed, and incubated with agitation, covered, room temperature, for 2 h. The washing was then repeated and 100 μL, of room temperature TMB substrate was added. After approximately 30 minutes incubation (room temperature, agitation, covered), the reaction was stopped with 50 μL, 3M sulfuric acid. Plates were read at 450 nm on a Molecular Devices Versamax plate reader.
Inhibitor effect was expressed as a percentage of DMSO-treated control signal, and inhibition curves were calculated using a 4-parameter equation: y=A+((B−A)/(1+((C/x)̂D))), where C is half-maximal activity or EC50.

T1 sequence (Q9WMX2 1027-1657): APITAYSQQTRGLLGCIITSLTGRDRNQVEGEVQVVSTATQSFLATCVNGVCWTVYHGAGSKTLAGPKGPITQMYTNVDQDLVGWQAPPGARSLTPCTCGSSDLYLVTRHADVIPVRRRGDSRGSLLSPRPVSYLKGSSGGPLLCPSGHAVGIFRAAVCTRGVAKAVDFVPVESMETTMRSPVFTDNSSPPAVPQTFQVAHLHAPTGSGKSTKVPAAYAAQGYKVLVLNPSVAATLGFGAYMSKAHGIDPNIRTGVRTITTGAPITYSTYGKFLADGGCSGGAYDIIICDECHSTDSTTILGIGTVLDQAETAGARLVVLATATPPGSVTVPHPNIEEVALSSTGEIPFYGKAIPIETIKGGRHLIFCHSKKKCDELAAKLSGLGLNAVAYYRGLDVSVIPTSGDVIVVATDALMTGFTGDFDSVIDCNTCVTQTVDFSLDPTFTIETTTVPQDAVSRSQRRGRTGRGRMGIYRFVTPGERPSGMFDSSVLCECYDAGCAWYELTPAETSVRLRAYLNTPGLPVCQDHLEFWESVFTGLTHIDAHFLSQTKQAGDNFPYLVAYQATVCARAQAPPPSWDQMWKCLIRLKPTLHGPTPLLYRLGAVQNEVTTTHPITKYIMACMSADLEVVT
T1 sequence (Q9WMX2 1658-1711): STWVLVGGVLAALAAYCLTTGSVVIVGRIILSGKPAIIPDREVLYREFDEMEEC

SMILES | IC50 [1] [nM] | EC50 [2] [nM]
C=C[C@@H]1C[C@]1(NC(=O)[C@H]1Cc2cc(Oc3cccc(Cl)c3)ccc2CN1C(=O)[C@@H](Nc1ccc(F)cc1)C(C)(C)C)C(=O)NS(=O)(=O)C1(C)CC1 [Compound 26] | 100 to 1000 | –
CC[C@@H]1C[C@]1(NC(=O)[C@@H]1C[C@@H](OC(=O)N2Cc3cccc(F)c3C2)CN1C(=O)[C@@H](Nc1cccc(OC(F)(F)F)c1)C(C)(C)C)C(=O)NS(=O)(=O)C1CC1 [Compound 12] | < 100 | < 100
C=C[C@@H]1C[C@]1(NC(=O)[C@@H]1C[C@@H](Oc2cc(-c3nc(C(C)C)cs3)nc3c(C)c(OC)ccc23)CN1C(=O)[C@@H](Nc1ccc(F)c(C(F)(F)F)c1)C(C)(C)C)C(=O)NS(=O)(=O)N(C)C [Compound 400] | < 100 | < 100
CC[C@@H]1C[C@]1(NC(=O)[C@@H]1C[C@@H](OC(=O)N2Cc3ccc(NC(=O)CN4CCOCC4)cc3C2)CN1C(=O)[C@@H](Nc1cc(F)cc(C(F)(F)F)c1)C(C)(C)C)C(=O)NS(=O)(=O)C1CC1 [Compound 20] | < 100 | < 100
C=C[C@@H]1C[C@]1(NC(=O)[C@@H]1C[C@@H](Oc2cc(-c3nc(C(C)C)cs3)nc3c(C)c(OC)ccc23)CN1C(=O)[C@@H](Nc1ccc(F)c(C(F)(F)F)c1)C(C)(C)C)C(=O)NS(=O)(=O)C1CC1 [Compound 306] | < 100 | < 100
CC[C@@H]1C[C@]1(NC(=O)[C@@H]1C[C@@H](OC(=O)N2Cc3cccc(Cl)c3C2)CN1C(=O)[C@@H](Nc1ccc(F)c(C(F)(F)F)c1)C(C)(C)C)C(=O)NS(=O)(=O)C1(C)CC1 [Compound 284] | < 100 | < 100
CC[C@@H]1C[C@]1(NC(=O)[C@@H]1C[C@@H](OC(=O)N2Cc3cccc(F)c3C2)CN1C(=O)[C@@H](Nc1ccc(C(=O)OC)cc1)C(C)(C)C)C(=O)NS(=O)(=O)C1CC1 [Compound 2] | < 100 | 100 to 1000
C=C[C@@H]1C[C@]1(NC(=O)[C@H]1Cc2cc(Oc3cccc(Cl)c3)ccc2CN1C(=O)[C@@H](Nc1cccc(C(F)(F)F)c1)C(C)(C)C)C(=O)NS(=O)(=O)C1(C)CC1 [Compound 22] | < 100 | > 1000
CC[C@@H]1C[C@]1(NC(=O)[C@@H]1C[C@@H](OC(=O)N2Cc3ccc(NC(=O)COCCOCCOC)cc3C2)CN1C(=O)[C@@H](Nc1cc(F)cc(C(F)(F)F)c1)C(C)(C)C)C(=O)NS(=O)(=O)C1CC1 [Compound 18] | 100 to 1000 | 100 to 1000
CC[C@@H]1C[C@]1(NC(=O)[C@@H]1C[C@@H](OC(=O)N2Cc3ccc(NCCN4CCOCC4)cc3C2)CN1C(=O)[C@@H](Nc1cc(F)cc(C(F)(F)F)c1)C(C)(C)C)C(=O)NS(=O)(=O)C1(C)CC1 [Compound 314] | < 100 | < 100
CC[C@@H]1C[C@]1(NC(=O)[C@@H]1C[C@@H](OC(=O)N2Cc3cccc(F)c3C2)CN1C(=O)[C@@H](Nc1cccc(C(=O)N2CCN(C)CC2)c1)C(C)(C)C)C(=O)NS(=O)(=O)C1CC1 [Compound 8] | < 100 | > 1000
C=C[C@@H]1C[C@]1(NC(=O)[C@@H]1C[C@@H](OC(=O)N2Cc3cccc(F)c3C2)CN1C(=O)[C@@H](Nc1cc(F)cc(C(F)(F)F)c1)C(C)(C)C)C(=O)NS(=O)(=O)C1(C)CC1 [Compound 288] | < 100 | < 100
CC[C@@H]1C[C@]1(NC(=O)[C@@H]1C[C@@H](OC(=O)N2Cc3cccc(F)c3C2)CN1C(=O)[C@@H](Nc1ccc(-n2cccn2)cc1)C(C)(C)C)C(=O)NS(=O)(=O)C1CC1 [Compound 16] | < 100 | 100 to 1000
CC[C@@H]1C[C@]1(NC(=O)[C@@H]1C[C@@H](Oc2cc(-c3nc(C(C)C)cs3)nc3c(C)c(OC)ccc23)CN1C(=O)[C@@H](Nc1cc(F)cc(C(F)(F)F)c1)C(C)(C)C)C(=O)NS(=O)(=O)C1(C)CC1 [Compound 300] | – | < 100
C=C[C@@H]1C[C@]1(NC(=O)[C@@H]1Cc2cc(Oc3cccc(Cl)c3)ccc2CN1C(=O)[C@@H](Nc1ccc(F)cc1)C(C)(C)C)C(=O)NS(=O)(=O)C1CC1 [Compound 28] | 100 to 1000 | –
C=C[C@@H]1C[C@]1(NC(=O)[C@@H]1Cc2cc(Oc3cccc(Cl)c3)ccc2CN1C(=O)[C@@H](Nc1cccc(C(F)(F)F)c1)C(C)(C)C)C(=O)NS(=O)(=O)C1(C)CC1 [Compound 21] | < 100 | –
C=C[C@@H]1C[C@]1(NC(=O)[C@@H]1Cc2cc(Oc3cccc(Cl)c3)ccc2CN1C(=O)[C@@H](Nc1ccc(F)cc1)C(C)(C)C)C(=O)NS(=O)(=O)C1CC1 [Compound 27] | < 100 | –
C=C[C@@H]1C[C@]1(NC(=O)[C@@H]1Cc2cc(Oc3cccc(Cl)c3)ccc2CN1C(=O)[C@@H](Nc1ccc(F)cc1)C(C)(C)C)C(=O)NS(=O)(=O)C1(C)CC1 [Compound 25] | < 100 | –

Source: US20100119479A1, “THERAPEUTIC ANTIVIRAL PEPTIDES” (INTERMUNE, INC., priority 2008, published 2010)
